Assay [1] concerns the target T1, Ras farnesyl transferase (Homo sapiens, UniProt P49354+P49356).
T1 construct: made in house
The assay can be described thus: In vitro inhibitory activity for Ras farnesyl transferase, H-Ras substrate. It is filed as biochemical. The following applies: recombinant farnesyl transferase 4.5 nM, Ras substrate protein 1.5 μM, tritium-farnesylpyrophosphate 0.15 μM, 30 minutes at 37° C.; read-out: H-Ras IC50.

Assay [2] addresses T1, Ras farnesyl transferase. Put plainly: In vitro inhibitory activity for Ras farnesyl transferase, K-Ras substrate. It is filed as biochemical. The following applies: in vitro farnesyl transferase assay, K-Ras; read-out: K-Ras IC50.
The target of assay [3] is T2, Ras farnesyl transferase (Rattus norvegicus, UniProt Q02293+Q04631).
T2 construct: endogenous in cells; host or cells: Rat2 fibroblasts transformed with H-Ras or with an H-Ras/K-Ras C-terminus fusion
The assay can be described thus: In vivo (cellular) inhibitory activity for Ras farnesyl transferase, Rat2 cell line which expresses C-Harvey-Ras protein. The following applies: Rat2 cell line expressing C-Harvey-Ras; concentration inhibiting 50% of farnesyl bonding of Ras protein; read-out: H-Ras CIC50. It is filed as cell-based. The method, boiled down:
(§1)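 Farnesylated versus unfarnesylated Ras bands were measured by autoradiography after Y13-259 immunoprecipitation and SDS-PAGE, giving CIC50 as 50% inhibition of farnesylation. Rat2 cells expressing H-Ras or an H-Ras fusion with K-Ras polybasic C-terminus got compound (1% DMSO), then [35S]methionine from 4 h onward for 20 h.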

Assay [4] concerns the target T2, Ras farnesyl transferase. The assay can be described thus: In vivo (cellular) inhibitory activity for Ras farnesyl transferase, Rat2 cell line transformed with fused protein of H-Ras substituted with polybasic lysine domain at C-terminus of K-Ras. It is filed as cell-based. The following applies: Rat2 cell line transformed with H-Ras fused with polybasic lysine domain of K-Ras C-terminus; concentration inhibiting 50% of farnesyl bonding; read-out: K-Ras CIC50. In short, it runs like this: as §1

Among the data in patent US6472526B1, “Imidazole derivatives having an inhibitory activity for farnesyl transferase and process for preparation thereof” (LG Chemical Ltd., priority 1997, dated 2002) are IC50 values, retold here.

In the case of `O=C(c1cn(Cc2cncn2Cc2ccc(Br)cc2)nc1-c1cccc2ccccc12)N1CCOCC1` [Compound 160, 1-[1-(4-Bromobenzyl)-1H-imidazol-5-ylmethyl]-4-(morpholin-4-yl)carbonyl-3-(naphthalen-1-yl)-1H-pyrazole], the IC50 in assay [1] worked out at 0.3 µM; in assay [2] it was 3 µM; in assay [3], 1.5 µM; in assay [4] it was 40 µM.
